From PMC8242268, “Transcriptomic and Proteomic Analysis of Mannitol-metabolism-associated Genes in Saccharina japonica” (Genomics, Proteomics & Bioinformatics, 2020)

Legend:
[1] = target: T1, SjaM1PDH2 (Saccharina japonica, UniProt A0A2Z4BWZ7); assay: F6P reduction kinetics, Lineweaver-Burk; format: biochemical; details: apparent; co-substrate NADH
T1 construct: codon-optimized synthetic gene, pET32a (EcoRI/NotI), E. coli BL21(DE3), His-resin purified
T1 sequence (A0A2Z4BWZ7 1-355): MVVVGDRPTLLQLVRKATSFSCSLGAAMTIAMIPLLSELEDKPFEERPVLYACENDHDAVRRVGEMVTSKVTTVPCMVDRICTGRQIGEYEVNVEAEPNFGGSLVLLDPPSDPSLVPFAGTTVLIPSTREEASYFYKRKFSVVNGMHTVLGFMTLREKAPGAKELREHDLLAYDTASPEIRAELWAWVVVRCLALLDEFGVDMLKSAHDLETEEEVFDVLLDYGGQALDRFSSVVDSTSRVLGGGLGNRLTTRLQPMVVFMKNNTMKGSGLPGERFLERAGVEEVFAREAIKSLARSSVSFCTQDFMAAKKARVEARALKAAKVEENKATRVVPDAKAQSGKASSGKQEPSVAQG

[2] = target: T2, SjaM1Pase2 (Saccharina japonica, UniProt A0A2Z4BXC0); assay: M1P phosphatase kinetics, Lineweaver-Burk; format: biochemical; details: apparent; 100 mM Tris-HCl buffer
T2 construct: codon-optimized synthetic gene, pGEX-6p-1 (EcoRI/NotI), E. coli BL21(DE3), GST-resin purified
T2 sequence (A0A2Z4BXC0 1-327): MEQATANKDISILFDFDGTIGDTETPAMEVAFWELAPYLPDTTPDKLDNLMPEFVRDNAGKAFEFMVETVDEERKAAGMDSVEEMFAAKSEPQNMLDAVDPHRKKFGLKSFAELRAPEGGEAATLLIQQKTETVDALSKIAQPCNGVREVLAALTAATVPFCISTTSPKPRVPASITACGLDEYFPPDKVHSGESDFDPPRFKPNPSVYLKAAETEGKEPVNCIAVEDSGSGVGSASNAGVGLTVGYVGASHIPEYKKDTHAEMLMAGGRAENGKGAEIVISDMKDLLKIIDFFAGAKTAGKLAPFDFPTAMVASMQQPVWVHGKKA

Compound	Km [1] [µM]	Km [2] [µM]
O=P(O)(O)OC[C@H]1OC(O)(CO)[C@@H](O)[C@@H]1O (some centres unmarked) [F6P]	2020	–
O=P(O)(O)OC[C@@H](O)[C@@H](O)[C@H](O)[C@H](O)CO [M1P]	–	20
